Experimental data: patent publication US20250099431A1, “GLP-1R MODULATING COMPOUNDS” (priority 2020, published 2025)

Assays:
GLP-1R = GLP-1R (Homo sapiens (Human), UniProt P43220); experiment: GLP-1R activation: cAMP increase in CHO cells stably expressing GLP-1R; type: cell-based; conditions: cAMP increase, 10 point dose response, 30 minutes incubation at 37° C., read-out: EC50
Summary of the method: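 CHO cells stably expressing GLP-1R were incubated 1 h at 37 °C in medium with 1% BSA, then exposed to compound in a 10-point dose response for 30 min at 37 °C. cAMP rise was detected by HTRF (Gs Dynamic kit). EC50 came from a sigmoidal fit of response against log agonist concentration.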

[1] = Microsomal stability (liver microsomal assay, mixed cofactors); predicted hepatic clearance; type: in vitro ADME; conditions: liver microsomes 1.0 mg protein/mL (+UDPGA +NADPH), 1 μM analyte, 37° C.; scaled with human liver weight and hepatic blood flow 1.3 L/hr/kg
Summary of the method: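 Compound at 1 μM with human or rat pooled liver microsomes, alamethicin-treated, pH 7.4 phosphate, NADPH-regenerating plus UDPGA cofactors, 37° C, sampled 0–70 min. Parent/internal standard ratio by RapidFire QToF MS; half-life from initial log-linear decay, scaled to intrinsic and predicted hepatic clearance and hepatic extraction.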

Sequence of GLP-1R (P43220 24-463): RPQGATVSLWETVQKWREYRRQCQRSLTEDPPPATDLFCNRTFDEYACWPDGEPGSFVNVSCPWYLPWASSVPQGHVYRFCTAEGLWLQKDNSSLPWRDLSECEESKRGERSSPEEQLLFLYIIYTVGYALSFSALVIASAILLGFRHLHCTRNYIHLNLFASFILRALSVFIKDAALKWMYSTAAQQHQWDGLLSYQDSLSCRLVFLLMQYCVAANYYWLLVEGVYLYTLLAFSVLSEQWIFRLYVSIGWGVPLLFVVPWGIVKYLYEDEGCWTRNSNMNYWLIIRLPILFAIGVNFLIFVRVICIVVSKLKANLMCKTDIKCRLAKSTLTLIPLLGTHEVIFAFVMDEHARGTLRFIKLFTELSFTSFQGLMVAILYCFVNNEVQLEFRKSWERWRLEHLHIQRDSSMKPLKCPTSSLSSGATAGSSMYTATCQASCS

Structure (SMILES) | EC50 (GLP-1R) | Predicted Hepatic Clearance (Pred. Cl.) [1]
COCCn1c(Cc2c(F)cc(-c3cccc4c3OC3(CCCOc5cc(Cl)ccc53)O4)cc2F)nc2ccc(C(=O)O)cc21 (stereo not drawn) [Example 55, 2-(4-(8-chloro-3,4-dihydro-2H-spiro[benzo[b]oxepine-5,2′-benzo[d][1,3]dioxol]-4′-yl)-2,6-difluorobenzyl)-1-(2-methoxyethyl)-1H-benzo[d]imidazole-6-carboxylic acid] | 1.27 µM | 0.5 L/h/kg
COCCn1c(Cc2c(F)cc(-c3cccc4c3OC3(CCCc5cc(Cl)ccc53)O4)cc2F)nc2ccc(C(=O)O)cc21 (stereo not drawn) [Example 56, 2-(4-(6′-chloro-3′,4′-dihydro-2′H-spiro[benzo[d][1,3]dioxole-2,1′-naphthalen]-4-yl)-2,6-difluorobenzyl)-1-(2-methoxyethyl)-1H-benzo[d]imidazole-6-carboxylic acid] | 3.75 µM | 0.35 L/h/kg
COCCn1c(Cc2c(F)cc(-c3cccc4c3OC3(CCCCc5cc(Cl)ccc53)O4)cc2F)nc2ccc(C(=O)O)cc21 (stereo not drawn) [Example 57, 2-(4-(2′-chloro-6′,7′,8′,9′-tetrahydrospiro[benzo [d][1,3]dioxole-2,5′-benzo[7]annulen]-4-yl)-2,6-difluorobenzyl)-1-(2-methoxyethyl)-1H-benzo[d]imidazole-6-carboxylic acid] | 0.347 µM | 0.55 L/h/kg
COCCn1c(Cc2c(F)cc(-c3cccc4c3OC(C)(c3ccc(C(F)(F)F)cc3F)O4)cc2F)nc2ccc(C(=O)O)cc21 (stereo not drawn) [Example 58, 2-(2,6-difluoro-4-(2-(2-fluoro-4-(trifluoromethyl)phenyl)-2-methylbenzo[d][1, 3]dioxol-4-yl)benzyl)-1-(2-methoxyethyl)-1H-benzo[d]imidazole-6-carboxylic acid] | 0.0063 µM | 0.19 L/h/kg
COCCn1c(Cc2c(F)cc(-c3cccc4c3OC(C)(c3ccc(Cl)cc3OC)O4)cc2F)nc2ccc(C(=O)O)cc21 (stereo not drawn) [Example 60, 2-(4-(2-(4-chloro-2-methoxyphenyl)-2-methylbenzo[d][1, 3]dioxol-4-yl)-2,6-difluorobenzyl)-1-(2-methoxyethyl)-1H-benzo[d]imidazole-6-carboxylic acid] | 0.0038 µM | 0.21 L/h/kg
COCCn1c(Cc2csc(-c3cccc4c3OC(C)(c3ccc(Cl)cc3F)O4)c2)nc2ccc(C(=O)O)cc21 (stereo not drawn) [Example 61, 2-((5-(2-(4-chloro-2-fluorophenyl)-2-methylbenzo[d][1, 3]dioxol-4-yl)thiophen-3-yl)methyl)-1-(2-methoxyethyl)-1H-benzo[d]imidazole-6-carboxylic acid] | 0.639 µM | 0.8 L/h/kg
COCCn1c(Cc2cc(F)c(-c3cccc4c3OC(C)(c3ccc(C#N)cc3F)O4)cc2F)nc2c(F)cc(C(=O)O)cc21 (stereo not drawn) [Example 62, 2-(4-(2-(4-cyano-2-fluorophenyl)-2-methylbenzo[d][1, 3]dioxol-4-yl)-2,5-difluorobenzyl)-4-fluoro-1-(2-methoxyethyl)-1H-benzo[d]imidazole-6-carboxylic acid] | 0.0025 µM | 0.53 L/h/kg
CC1(c2ccc(C(F)(F)F)cc2)Oc2cccc(-c3cc(F)c(Cc4nc5ccc(C(=O)O)cc5n4C[C@@H]4CCO4)cc3F)c2O1 (stereo partly drawn) [Example 63, 2-(2,5-difluoro-4-(2-methyl-2-(4-(trifluoromethyl)phenyl)benzo[d][1, 3]dioxol-4-yl)benzyl)-1-(((S)-oxetan-2-yl)methyl)-1H-benzo[d]imidazole-6-carboxylic acid] | 0.00062 µM | 0.21 L/h/kg
COCCn1c(Cc2c(F)cc(-c3cccc4c3OC(C)(c3ccc(Cl)cn3)O4)cc2F)nc2ccc(C(=O)O)cc21 (stereo not drawn) [Example 64, 2-(4-(2-(5-chloropyridin-2-yl)-2-methylbenzo[d][1, 3]dioxol-4-yl)-2,6-difluorobenzyl)-1-(2-methoxyethyl)-1H-benzo[d]imidazole-6-carboxylic acid] | 0.111 µM | 0.22 L/h/kg
COCCn1c(Cc2c(F)cc(-c3cccc4c3OC(C)(c3ccc(Cl)cn3)O4)cc2F)nc2ccc(C(=O)O)cc21 (stereo not drawn) [Example 65, 2-(4-(2-(5-chloropyridin-2-yl)-2-methylbenzo[d][1, 3]dioxol-4-yl)-2,6-difluorobenzyl)-1-(2-methoxyethyl)-1H-benzo[d]imidazole-6-carboxylic acid] | 0.01 µM | 0.2 L/h/kg
COCCn1c(Cc2c(F)cc(-c3cccc4c3OC(C)(c3ccc(C#N)cn3)O4)cc2F)nc2ccc(C(=O)O)cc21 (stereo not drawn) [Example 66, 2-(4-(2-(5-cyanopyridin-2-yl)-2-methylbenzo[d][1, 3]dioxol-4-yl)-2,6-difluorobenzyl)-1-(2-methoxyethyl)-1H-benzo[d]imidazole-6-carboxylic acid] | 0.021 µM | 0.43 L/h/kg
COCCn1c(Cc2c(F)cc(-c3cccc4c3OC(C)(c3ccc(C(N)=O)cn3)O4)cc2F)nc2ccc(C(=O)O)cc21 (stereo not drawn) [Example 67, 2-(4-(2-(5-carbamoylpyridin-2-yl)-2-methylbenzo[d][1, 3]dioxol-4-yl)-2,6-difluorobenzyl)-1-(2-methoxyethyl)-1H-benzo[d]imidazole-6-carboxylic acid] | 0.02 µM | 0.43 L/h/kg
CCn1cnnc1Cn1c(Cc2c(F)cc(-c3cccc4c3OC(C)(c3ccc(Cl)cc3F)O4)cc2F)nc2ccc(C(=O)O)cc21 (stereo not drawn) [Example 68, 2-(4-(2-(4-chloro-2-fluorophenyl)-2-methylbenzo[d][1, 3]dioxol-4-yl)-2,6-difluorobenzyl)-1-((4-ethyl-4H-1,2,4-triazol-3-yl)methyl)-1H-benzo[d]imidazole-6-carboxylic acid] | 0.012 µM | 0.17 L/h/kg
CC1(c2ccc(Cl)cc2F)Oc2cccc(-c3cc(F)c(Cc4nc5ccc(C(=O)O)cc5n4Cc4ncco4)c(F)c3)c2O1 (stereo not drawn) [Example 69, 2-(4-(2-(4-chloro-2-fluorophenyl)-2-methylbenzo[d][1, 3]dioxol-4-yl)-2,6-difluorobenzyl)-1-(oxazol-2-ylmethyl)-1H-benzo[d]imidazole-6-carboxylic acid] | 0.0025 µM | 0.15 L/h/kg
CC1(c2ccc(Cl)cn2)Oc2cccc(-c3cc(F)c(Cc4nc5ccc(C(=O)O)cc5n4C[C@@H]4CCO4)c(F)c3F)c2O1 (stereo partly drawn) [Example 70, 2-(4-(2-(5-chloropyridin-2-yl)-2-methylbenzo[d][1, 3]dioxol-4-yl)-2,3,6-trifluorobenzyl)-1-(((S)-oxetan-2-yl)methyl)-1H-benzo[d]imidazole-6-carboxylic acid] | 0.00078 µM | 0.21 L/h/kg
O=C(O)c1ccc2nc(Cc3c(F)cc(-c4cccc5c4CN(c4ccc(Cl)cc4F)C5)cc3F)n(C[C@@H]3CCO3)c2c1 [Example 71, (S)-2-(4-(2-(4-chloro-2-fluorophenyl)isoindolin-4-yl)-2,6-difluorobenzyl)-1-(oxetan-2-ylmethyl)-1H-benzo[d]imidazole-6-carboxylic acid] | 10 µM | 0.23 L/h/kg
O=C(O)c1ccc2nc(Cc3c(F)cc(-c4cccc5c4C(=O)N(c4ccc(Cl)cc4F)C5)cc3F)n(C[C@@H]3CCO3)c2c1 [Example 72, (S)-2-(4-(2-(4-chloro-2-fluorophenyl)-3-oxoisoindolin-4-yl)-2,6-difluorobenzyl)-1-(oxetan-2-ylmethyl)-1H-benzo[d]imidazole-6-carboxylic acid] | 10 µM | 0.22 L/h/kg
O=C(O)c1ccc2nc(Cc3c(F)cc(-c4cccc5c4CN(c4ccc(Cl)cc4F)C5=O)cc3F)n(C[C@@H]3CCO3)c2c1 [Example 73, (S)-2-(4-(2-(4-chloro-2-fluorophenyl)-1-oxoisoindolin-4-yl)-2,6-difluorobenzyl)-1-(oxetan-2-ylmethyl)-1H-benzo[d]imidazole-6-carboxylic acid] | 10 µM | 0.15 L/h/kg
CC1(c2ccc(Cl)cn2)Oc2cccc(-c3cc(F)c(Cc4nc5ccc(C(=O)O)cc5n4C[C@@H]4CCO4)c(C#N)c3)c2O1 (stereo partly drawn) [Example 74, 2-(4-(2-(5-chloropyridin-2-yl)-2-methylbenzo[d][1, 3]dioxol-4-yl)-2-cyano-6-fluorobenzyl)-1-(((S)-oxetan-2-yl)methyl)-1H-benzo[d]imidazole-6-carboxylic acid] | 0.0017 µM | 0.46 L/h/kg
CC1(c2ccc(Cl)cc2F)Oc2cccc(-c3cc(F)c(Cc4nc5ccc(C(=O)O)nc5n4CC4(CC#N)CC4)cc3F)c2O1 (stereo not drawn) [Example 75, 2-(4-(2-(4-chloro-2-fluorophenyl)-2-methylbenzo[d][1, 3]dioxol-4-yl)-2,5-difluorobenzyl)-3-((1-(cyanomethyl)cyclopropyl)methyl)-3H-imidazo[4,5-b]pyridine-5-carboxylic acid] | 0.0007 µM | 0.29 L/h/kg
CC1(c2ccc(Cl)cn2)Oc2ccc(F)c(-c3ccc(Cc4nc5ccc(C(=O)O)cc5n4C[C@@H]4CCO4)c(F)c3)c2O1 (stereo partly drawn) [Example 76, 2-(4-(2-(5-chloropyridin-2-yl)-5-fluoro-2-methylbenzo[d][1, 3]dioxol-4-yl)-2-fluorobenzyl)-1-(((S)-oxetan-2-yl)methyl)-1H-benzo[d]imidazole-6-carboxylic acid] | 0.0043 µM | 0.48 L/h/kg
